Reference: patent publication US7960387B2, “2-(3-phenyl-2-piperazinyl-3,4-dihydroquinazolin-4-yl)acetic acids as antiviral agents, especially against cytomegaloviruses” (Bayer Schering Pharma Aktiengesellschaft, priority 2003, dated 2011)
Counter-ions that a name gives are not always drawn. Like-named read-outs stand apart in the source and are kept apart here.

Columns and labels:
[1] = test system: HCMV; experiment: Anti-HCMV cytopathogenicity test; type: cell-based, human cytomegalovirus; details: read-out: HCMV EC50
Experimental: (§1) Anti-HCMV (Anti-Human Cytomegalovirus) Cytopathogenicity Tests The test compounds are employed as 50 millimolar (mM) solutions in dimethyl sulphoxide (DMSO). Ganciclovir®, Foscarnet® and Cidofovir® are used as reference compounds. After addition of in each case 2 μl of the 50, 5, 0.5 and 0.05 mM DMSO stock solutions to 98 μl portions of cell culture medium in row […] for duplicate determinations, 1:2 dilutions are carried out with 50 μl portions of medium up to row 11 of the 96-well plate. The wells in rows 1 and 12 each contain 50 μl of medium. In 150 μl of a suspension of 1×10^4 cells (human prepuce fibroblasts [NHDF]) are pipetted into each of the wells (row 1=cell control) and, in rows 2-12, a mixture of HCMV-infected and uninfected NHDF cells (M.O.I.=0.001-0.002), i.e. 1-2 infected cells per 1000 uninfected cells. Row 12 (without substance) serves as virus control. The final test concentrations are 250-0.0005 μM. The plates are incubated at 37° C./5% CO2 for 6 days, i.e. until all the cells are infected in the virus controls (100% cytopathogenic effect [CPE]). The wells are then fixed and stained by adding a mixture of formalin and Giemsa's dye (30 minutes), washed with double-distilled water and dried in a drying oven at 50° C. The plates are then assessed visually using an overhead microscope (Plaque Multiplier from Technomara). The following data can be acquired from the test plates: • CC50 (NHDF)=substance concentration in μM at which no visible cytostatic effects on the cells are evident by comparison with the untreated cell control; • EC50 (HCMV)=substance concentration in μM which inhibits the CPE (cytopathic effect) by 50% compared with the untreated virus control; • SI (selectivity index)=CC50 (NHDF)/EC50 (HCMV).

[2] = Anti-HCMV cytopathogenicity test: cytostatic effects on NHDF cells; type: cell-based; details: NHDF cells (human prepuce fibroblasts), 6 days incubation, visual assessment, concentration at which no visible cytostatic effects are evident vs untreated cell control
Experimental: as §1

[3] = Human betaherpesvirus 5, 144 h, HCMV-infected NHDF cells, M.O.I. 0.001-0.002, 6 days, 50% inhibition of CPE vs untreated virus control

| Structure (SMILES) | EC50 [1, 3] [µM] | CC50 at 6 days [2] [µM] | EC50 ([1]; Human betaherpesvirus 5, NHDF, 144 h) [µM] |
| --- | --- | --- | --- |
| Cc1cc(Cl)ccc1N1C(N2CCN(c3cccc(Cl)c3)CC2)=Nc2ccccc2C1CC(=O)O (stereo not shown) [Example 6, {2-[4-(3-Chlorophenyl)-1-piperazinyl]-3-[4-chloro-2-methylphenyl]-3,4-dihydro-4-quinazolinyl}acetic acid] | 0.4 | 22 |  |
| O=C(O)CC1c2ccccc2N=C(N2CCN(c3ccc(F)cc3)CC2)N1c1cc(C(F)(F)F)ccc1F (stereo not shown) [Example 2, {2-[4-(4-Fluorophenyl)-1-piperazinyl]-3-[2-fluoro-5-(trifluoromethyl)phenyl]-3,4-dihydro-4-quinazolinyl}acetic acid hydrochloride] |  | 39 | 0.06 |
| COc1ccc(C)cc1N1C(N2CCN(c3cccc(Cl)c3)CC2)=Nc2ccccc2C1CC(=O)O (stereo not shown) [Example 31, {2-[4-(3-Chlorophenyl)-1-piperazinyl]-3-[2-methoxy-5-methylphenyl]-3,4-dihydro-4-quinazolinyl}acetic acid] | 0.14 | 63 |  |
| O=C(O)CC1c2ccccc2N=C(N2CCN(c3cccc(Cl)c3)CC2)N1c1ccc(F)c(Cl)c1 (stereo not shown) [Example 19] | 0.4 | 24 |  |
| COc1ccc(C)cc1N1C(N2CCN(c3cccc(C)c3)CC2)=Nc2ccccc2C1CC(=O)O (stereo not shown) [Example 30, {2-[4-(3-Methylpheny)-1-piperazinyl]-3-[2-methoxy-5-methylphenyl]-3,4-dihydro-4-quinazolinyl}acetic acid] | 0.25 | 250 |  |
| COc1cccc(N2CCN(C3=Nc4ccccc4C(CC(=O)O)N3c3cccc(C#N)c3)CC2)c1 (stereo not shown) [Example 23] | 0.76 | 188 |  |
| COc1ccc(C(F)(F)F)cc1N1C(N2CCN(c3cccc(C)c3)CC2)=Nc2ccccc2C1CC(=O)O (stereo not shown) [Example 27, {2-[4-(3-Methylphenyl)-1-piperazinyl]-3-[2-methoxy-5-(trifluoromethyl)phenyl]-3,4-dihydro-4-quinazolinyl}acetic acid] | 0.13 | 188 |  |

Further molecules by falling EC50 [1, 3], results first:

| EC50 [1, 3] [µM] | Structure (SMILES) | CC50 at 6 days [2] [µM] | EC50 ([1]; Human betaherpesvirus 5, NHDF, 144 h) [µM] |
| --- | --- | --- | --- |
| 0.07 | COc1ccc(Cl)cc1N1C(N2CCN(c3ccc(F)cc3)CC2)=Nc2ccccc2C1CC(=O)O (stereo not shown) [Example 29, {2-[4-(4-Fluorophenyl)-1-piperazinyl]-3-[2-methoxy-5-chlorophenyl]-3,4-dihydro-4-quinazolinyl}acetic acid] | 125 |  |
| 0.027 | Cc1cc(N2CCN(C3=Nc4ccccc4C(CC(=O)O)N3c3cccc(C(F)(F)F)c3)CC2)ccc1F (stereo not shown) [Example 1, {2-[4-(4-Fluoro-3-methylphenyl)-1-piperazinyl]-3-[3-(trifluoromethyl)phenyl]-3,4-dihydro-4-quinazolinyl}acetic acid] | 17 |  |
| 0.025 | COc1cccc(N2CCN(C3=Nc4ccccc4C(CC(=O)O)N3c3cc(Cl)ccc3OC)CC2)c1 (stereo not shown) [Example 28, {2-[4-(3-Methoxyphenyl)-1-piperazinyl]-3-[2-methoxy-5-chlorophenyl]-3,4-dihydro-4-quinazolinyl]acetic acid] | 63 |  |
| 0.019 | COc1ccc(C(F)(F)F)cc1N1C(N2CCN(c3cccc(Cl)c3)CC2)=Nc2ccccc2C1CC(=O)O (stereo not shown) [Example 26, {2-[4-(3-Chlorophenyl)-1-piperazinyl]-3-[2-methoxy-5-(trifluoromethyl)phenyl]-3,4-dihydro-4-quinazolinyl)acetic acid] | 31 |  |
